Series [1] has as its system masseter muscle mechanoreceptors. In words: In vivo electrophysiology: mechanical threshold of mechanoreceptors. Conditions: for MT of masseter muscle mechanoreceptors on co-administration of THC with CB1 or CB2 antagonist: THC 1 mg/ml with AM251 or AM630 (1:0.5 and 1:1 mg/ml), intramuscular; for MT of masseter muscle mechanoreceptors: anesthetized rats, MT at 10, 30, 60, 120 min, 6 mechanoreceptors/group. Further details: species or system Sprague-Dawley rats. As for the experimental part: In vivo electrophysiology recordings of single ganglion neurons that innervate the craniofacial muscles were performed to investigate the mechanism of action of peripherally injected cannabinoids. Rats (n=6/group) from the behavioral experiments were used for subsequent in vivo electrophysiological experiments. Recordings were performed at least 7 days after the behavioral experiments and experiments were conducted on the PBS-injected masseter muscles (right side) of the rats to minimize potential residual effects of the previous cannabinoid treatments.
Rats were anesthetized with isoflurane (2-2.5% in oxygen 97-98%; AErrane; Baxter) and surgically prepared for electrophysiological recording. Heart rate, blood pressure and body temperature were monitored and a trachea tube was inserted for ventilation throughout the experiment. The hair of the face was shaved and the animal's head was positioned in a stereotaxic frame.
A parylene-coated tungsten microelectrode (0.10″, 2 MΩ, A-M Systems Inc.) was lowered into the trigeminal ganglion through the brain via a small trephination in the skull. An incision was made over the neck to expose the brain stem, and the dura was removed to allow access for a stimulating electrode to contact the caudal brain stem. Mechanoreceptors innervating craniofacial muscles (masseter and temporalis) were identified by mechanical probing using a fine-tipped cotton swab. Antidromic collisions were performed to confirm projection of the muscle fiber to the caudal brain stem (16, 30).
A stimulating electrode (parylene-coated tungsten microelectrode, 0.10″, 2 MΩ, A-M Systems Inc.) was lowered into the ipsilateral caudal brainstem and a constant-current electrical stimulus (100 μs biphasic pulse, 10-90 μA, 0.5 Hz) was applied to evoke antidromic action potentials. Orthodromic action potentials were evoked by mechanical stimulation of the tissue. […] The straight line distance between the stimulating and recording electrodes was divided by the latency of the antidromic action potential to estimate conduction velocity. MT was assessed with an electronic von Frey hair (IITC Life Science) by applying mechanical stimuli at 1 min intervals for 10 min to obtain baseline threshold. After baseline measurement, treatment was administered and MT was reassessed at 10, 30, 60, and 120 minutes thereafter. At the end of the experiments, animals were euthanized with pentobarbital (Nembutal 100 mg/kg, Abbott Laboratories, Chicago, IL).
(§1) For the immunohistochemistry experiment, the frequency of expression of CB1, CB2 and TRPV1, respectively, in trigeminal ganglion neurons between NGF and vehicle-injected sides was analyzed with a paired Student's t-test. For the behavioral and electrophysiological experiments, MT from NGF and vehicle-injected sides was analyzed with a two-way repeated measures analysis of variance (ANOVA) with time and treatment as factors. Relative mechanical activation threshold (Rel MT) was calculated as 100×Post-treatment MT/Baseline MT. Post hoc Holm Sidak's multiple comparison tests were used to compare post injection mechanical thresholds between treatment groups at each time point. One-way repeated measures ANOVA on ranks was used to analyze test scores in the inverted screen tests. A probability level of 0.05 was considered significant for all tests. Error bars represented standard error of the mean.

Series [2] concerns NGF-induced sensitization in female rat masseter muscle. Description: Behavioral mechanical threshold (electronic von Frey) of NGF-sensitized masseter muscle. The conditions noted are these: for Effect on NGF-induced mechanical sensitization (masseter muscle mechanical threshold, MT): intramuscular injection 10 μl, into NGF-injected masseter 3 days after NGF, MT at 10, 30, 60, 120 min, n=6/group; for MT of contralateral masseter muscles: after intramuscular cannabinoid injection into the NGF-injected side (THC 1 mg/ml, CBD 5 mg/ml, CBN 1 mg/ml). In kind it is in vivo, Sprague-Dawley rats.
Source text: Female (259-350 g, n=55) Sprague-Dawley rats were used for all experiments. Animals were housed in groups of two with a 12-h light/dark cycle. Food and water were given ad libitum. All animal procedures were reviewed and approved by the University of British Columbia Animal Care Committee.
Appropriate volumes of each solution were evaporated under nitrogen gas, and subsequently re-solubilized with 4% Tween 80 in isotonic saline to final concentrations used for injection.
Three days before behavioral experiments, rats received an injection of NGF (25 μg/ml, 10 μl, Sigma, St. Louis, MO) or vehicle (phosphate buffered saline, PBS, 10 μl) into the left and right masseter muscles, respectively, under brief isoflurane anesthesia. […] This is accompanied by an increase in NMDA receptor expression in peripheral trigeminal ganglion neurons with a peak at three days after injection (15). […] The masseter muscle region was shaved prior to injection and the injection sites were marked with a permanent marker for subsequent identification. The concentration of NGF was selected based on the concentration used in previous human experimental pain studies and experiments in rats (15, 24, 25, 26, 27). The investigator was blinded to the identity of the treatment groups until after all data was collected.
MT was assessed with a rigid electronic von Frey hair (IITC Life Science, Woodland Hills, CA). Before NGF injection, rats were habituated to restraint in a towel. […] The mechanical test stimulus was applied at 1 min intervals for 5 min and the average was calculated for further analysis. MT was measured daily for 5 days prior to the start of the experiment to determine that measurements were stable. MT readings recorded prior to NGF injection were used as naïve baseline. […] On the test day, a post-NGF injection baseline (NGF baseline) was recorded before injection of cannabinoid treatment groups. After treatment injections, MT was measured at 10, 30, 60, and 120 min after injection.
as §1

Series [3] concerns impaired motor function in rats. Description: Inverted screen test. In kind it is in vivo, Sprague-Dawley rats. The conditions noted are these: after intramuscular injection; for Impairment of motor functions in the inverted screen tests: tested at 10, 30, 60 and 120 min, n=4/group; for Inverted screen test median score: score 0 climbed to top, 1 held on upside down, 2 fell. On the procedure: A modified version of the inverted screen test was performed to evaluate impaired motor function in rats (28, 29). Rats (n=4/group) were placed on a screen (185 mm×290 mm) with 5 mm diameter holes and the screen was slowly inverted 180 degrees until the rats were suspended upside down on the bottom of the screen. […] The rats were trained how to perform the test daily for three days before they were tested.
as §1

The subject of series [4] is mental nerve ligation model. Description: Topical THC in mental nerve ligation model. The format is in vivo, mice. Conditions: topical THC 1% in a PLO-gel cream base. As for the experimental part: FIG. 14 illustrates the effect of topical THC (1%) in a mental nerve ligation model. Neuropathic pain behavior was measured by observing total facial grooming in naïve and post-surgical mice after application of vehicle or THC.
FIG. 15 illustrates the effect of topical THC (1%) in a mental nerve ligation model. Neuropathic pain behavior was measured by observing mechanical threshold response in naïve and post-surgical mice after application of vehicle or THC.

Setting [5] is: intramuscular injection 1 mg/ml.

Entries after “also recorded” stand apart in the source; their conditions may differ.

With `Cc1c(C(=O)NN2CCCCC2)nn(-c2ccc(Cl)cc2Cl)c1-c1ccc(I)cc1` [AM251, 1-(2,4-dichlorophenyl)-5-(4-iodophenyl)-4-methyl-N-1-piperidinyl-1H-pyrazole-3-carboxamide], the “MT of masseter muscle mechanoreceptors on co-administration of THC with CB1 or CB2 antagonist” value in series [1] is given as “attenuated the increase in MT mediated by THC alone”.
The same measure, in the same setting: the entry for `COc1ccc(C(=O)c2c(C)n(CCN3CCOCC3)c3cc(I)ccc23)cc1` [AM630, [6-iodo-2-methyl-1-[2-(4-morpholinyl)ethyl]-1H-indol-3-yl](4-methoxyphenyl)-methanone] is “not different from THC alone”.
Consider `CCCCCc1cc(O)c2c(c1)OC(C)(CCC=C(C)C)C=C2` (stereo not shown) [CBC, Cannabichromene], for which, in series [2] (1 mg/ml), the “Effect on NGF-induced mechanical sensitization (masseter muscle mechanical threshold, MT)” value (from here on “Effect”) is reported as “No effect on MT”. Also, in series [3], the “Impairment of motor functions in the inverted screen tests” value (“Impairment of motor functions” for short) is reported as “No impairment of motor functions” and the “Inverted screen test median score” value is 0.
Regarding `C=C(C)C1CCC(C)=CC1c1c(O)cc(CCCCC)cc1O` (stereo not shown) [CBD, 2-(6-isopropenyl-3-methyl-2-cyclohexen-1-yl)-5-pentyl-1,3-benzenediol], the “MT of masseter muscle mechanoreceptors” value in series [1] (setting [5]) is “not 1 mg/ml, significantly increased MT”; in series [1] (intramuscular injection 5 mg/ml) it was “significantly increased MT, 30 min after injection; also recorded: Significant differences”. In addition, in series [2], the “MT of contralateral masseter muscles” value is “No change in mechanical threshold”. Further, the “Effect” value in series [2] (1 mg/ml) is “had no effect on NGF-induced mechanical sensitization”; in series [2] (5 mg/ml), “significantly reversed NGF-induced sensitization at 10 and 30 min after injection; also recorded: Significant differences”. For the same compound, the “Impairment of motor functions” value in series [3] is “No impairment of motor functions”. Also, the “Inverted screen test median score” value in series [3] was 0.
For the compound `CCCCCc1cc(O)c2c(c1)OC(C)(C)c1ccc(C)cc1-2` [CBN, 6,6,9-trimethyl-3-pentylbenzo[c]chromen-1-ol], in series [1] (AUC of MT data of FIGS. 9-12, compared to the other indicated treatments), the “Area under the curve (AUC) analysis of the electrophysiological data” value was “reduction in pain response”. Besides, the “MT of masseter muscle mechanoreceptors” value in series [1] (setting [5]) is “significantly increased MT at 30 and 60 min after injection; also recorded: Significant differences”. Moreover, in series [2], the “MT of contralateral masseter muscles” value is listed as “No change in mechanical threshold”. Besides, the “Effect” value in series [2] (1 mg/ml) is recorded as “significant increase in MT at 10 min after injection compared to NGF baseline; also recorded: Significant differences”. Also, in series [3], the “Impairment of motor functions” value is “No impairment of motor functions” and the “Inverted screen test median score” value is on record as 0.
On to `CCCCCc1cc(O)c2c(c1)OC(C)(C)[C@@H]1CCC(C)=C[C@@H]21` [THC, delta-9-tetrahydrocannabinol], for which the “MT of masseter muscle mechanoreceptors” value in series [1] (setting [5]) is “significantly increased the MT of mechanoreceptors at 10, 30 and 60 min after injection; also recorded: Significant differences”. In addition, the “MT of contralateral masseter muscles” value in series [2] was “No change in mechanical threshold”. In addition, in series [2] (1 mg/ml), the “Effect” value is “significantly reversed NGF-induced sensitization at 10 and 30 min after injection; also recorded: Significant differences”. Moreover, in series [3], the “Impairment of motor functions” value is listed as “No impairment of motor functions” and the “Inverted screen test median score” value worked out at 0. In series [4], the “Mechanical allodynia in the lower lip skin (mechanical threshold response)” value is listed as “reversed mechanical allodynia” and the “Neuropathic pain behavior (facial grooming)” value was “reduced neuropathic pain behavior”.
